Measurements: ChEMBL document CHEMBL1201862, “PubChem BioAssay data set” (2004)
“And” between values parts separate entries of the source, which are not always exact repeats. Equal values may be shown once. The source made the active and inactive calls.

Tests used:
[1] = molecular target: T1, Alkaline phosphatase, tissue-nonspecific isozyme (Homo sapiens, UniProt P05186); assay: human TNAP enzyme inhibitors, SAR follow-up, biochemical, luminescent, dose response (AID 1056)
T1 sequence (P05186 whole entry): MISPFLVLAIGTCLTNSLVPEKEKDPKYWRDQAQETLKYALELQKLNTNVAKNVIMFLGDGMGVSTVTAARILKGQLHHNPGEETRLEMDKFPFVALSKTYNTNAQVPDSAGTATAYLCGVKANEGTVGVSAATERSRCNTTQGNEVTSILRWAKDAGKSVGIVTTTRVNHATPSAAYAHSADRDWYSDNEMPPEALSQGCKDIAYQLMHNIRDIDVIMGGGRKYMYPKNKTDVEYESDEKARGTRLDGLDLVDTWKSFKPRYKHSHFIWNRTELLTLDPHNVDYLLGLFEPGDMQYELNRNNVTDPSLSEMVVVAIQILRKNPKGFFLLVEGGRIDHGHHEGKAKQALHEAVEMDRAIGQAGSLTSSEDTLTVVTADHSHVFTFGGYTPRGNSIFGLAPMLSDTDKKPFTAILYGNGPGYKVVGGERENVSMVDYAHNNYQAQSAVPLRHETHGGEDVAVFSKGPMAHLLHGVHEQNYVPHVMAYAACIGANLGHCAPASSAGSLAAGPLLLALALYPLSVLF

[2] = molecular target: Alkaline phosphatase, placental type (Homo sapiens, UniProt P05187); assay: PLAP enzyme inhibitors, confirmation, biochemical, luminescence (AID 1512); type: functional
Sequence of Alkaline phosphatase, placental type (P05187 whole entry): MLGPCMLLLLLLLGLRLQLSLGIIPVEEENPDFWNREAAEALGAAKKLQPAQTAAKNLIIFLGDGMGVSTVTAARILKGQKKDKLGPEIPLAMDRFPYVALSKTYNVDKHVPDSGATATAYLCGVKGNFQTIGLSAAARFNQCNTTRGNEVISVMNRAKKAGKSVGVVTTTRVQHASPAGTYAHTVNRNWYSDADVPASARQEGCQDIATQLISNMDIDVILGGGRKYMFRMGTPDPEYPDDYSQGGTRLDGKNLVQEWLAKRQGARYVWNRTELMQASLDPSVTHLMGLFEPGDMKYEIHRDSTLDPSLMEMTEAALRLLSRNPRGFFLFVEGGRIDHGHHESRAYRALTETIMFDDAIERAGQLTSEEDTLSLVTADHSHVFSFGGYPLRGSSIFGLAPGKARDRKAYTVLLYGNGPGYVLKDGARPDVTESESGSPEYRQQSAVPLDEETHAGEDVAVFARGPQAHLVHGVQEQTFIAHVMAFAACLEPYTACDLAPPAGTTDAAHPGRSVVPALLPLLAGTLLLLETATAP

[3] = molecular target: Glyceraldehyde-3-phosphate dehydrogenase (Homo sapiens, UniProt P04406)
Sequence of Glyceraldehyde-3-phosphate dehydrogenase (P04406 whole entry): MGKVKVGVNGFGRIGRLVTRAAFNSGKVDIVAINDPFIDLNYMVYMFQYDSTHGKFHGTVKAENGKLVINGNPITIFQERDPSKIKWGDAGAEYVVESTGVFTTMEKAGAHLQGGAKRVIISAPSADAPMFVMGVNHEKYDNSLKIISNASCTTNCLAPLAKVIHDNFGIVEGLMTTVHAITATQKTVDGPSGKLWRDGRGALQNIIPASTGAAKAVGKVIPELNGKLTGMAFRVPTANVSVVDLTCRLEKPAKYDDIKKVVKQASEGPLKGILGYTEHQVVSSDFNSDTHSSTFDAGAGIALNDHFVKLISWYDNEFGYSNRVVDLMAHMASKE

[4] = molecular target: T2, DNA dC->dU-editing enzyme APOBEC-3G (Homo sapiens, UniProt Q9HC16); type: functional
T2 sequence (Q9HC16 whole entry): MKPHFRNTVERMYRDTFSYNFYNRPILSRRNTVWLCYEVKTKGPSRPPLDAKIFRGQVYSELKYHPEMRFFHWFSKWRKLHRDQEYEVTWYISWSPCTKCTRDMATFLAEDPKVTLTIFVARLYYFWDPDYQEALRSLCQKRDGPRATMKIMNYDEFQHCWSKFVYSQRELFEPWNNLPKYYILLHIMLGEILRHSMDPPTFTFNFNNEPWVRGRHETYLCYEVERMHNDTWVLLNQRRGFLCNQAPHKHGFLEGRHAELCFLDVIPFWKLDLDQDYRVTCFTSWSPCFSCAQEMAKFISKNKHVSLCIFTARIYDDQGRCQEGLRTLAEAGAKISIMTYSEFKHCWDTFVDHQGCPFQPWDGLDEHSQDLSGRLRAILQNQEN

[5] = molecular target: T3, DNA dC->dU-editing enzyme APOBEC-3A (Homo sapiens, UniProt P31941); assay: Dose Response confirmation of small molecule APOBEC3A DNA Deaminase Inhibitors via a fluorescence-based single-stranded DNA deaminase assay. [Related pubchem assays (depositor defined):AID493011, AID493024]; type: functional
T3 sequence (P31941 whole entry): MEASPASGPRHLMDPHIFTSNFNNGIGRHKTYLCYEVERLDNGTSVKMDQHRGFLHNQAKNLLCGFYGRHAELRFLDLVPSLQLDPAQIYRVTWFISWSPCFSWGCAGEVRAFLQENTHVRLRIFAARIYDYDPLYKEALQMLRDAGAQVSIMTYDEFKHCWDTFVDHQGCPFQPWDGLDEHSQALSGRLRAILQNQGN

[6] = molecular target: G-protein coupled receptor 55 (Homo sapiens, UniProt Q9Y2T6); assay: GPR55 agonists via beta-arrestin recruitment, primary screen, imaging, U2OS cells, beta-arrestin-GFP redistribution (AID 1961); type: functional
Sequence of G-protein coupled receptor 55 (Q9Y2T6 whole entry): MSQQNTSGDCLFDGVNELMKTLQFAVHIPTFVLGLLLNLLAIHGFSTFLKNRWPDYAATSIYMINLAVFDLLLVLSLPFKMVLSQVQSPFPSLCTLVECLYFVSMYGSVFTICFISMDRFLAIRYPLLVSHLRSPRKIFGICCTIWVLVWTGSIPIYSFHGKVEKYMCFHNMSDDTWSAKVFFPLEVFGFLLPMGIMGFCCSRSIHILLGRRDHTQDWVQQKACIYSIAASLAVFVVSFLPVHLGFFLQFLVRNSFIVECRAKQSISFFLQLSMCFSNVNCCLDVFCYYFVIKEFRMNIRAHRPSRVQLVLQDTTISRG

[7] = molecular target: T2, DNA dC->dU-editing enzyme APOBEC-3G; assay: Dose Response confirmation of small molecule APOBEC3G DNA Deaminase Inhibitors via a fluorescence-based single-stranded DNA deaminase assay. [Related pubchem assays (depositor defined):AID493012, AID493028]; type: functional
[8] = molecular target: T3, DNA dC->dU-editing enzyme APOBEC-3A; assay: APOBEC3A DNA deaminase inhibitors, dose response, biochemical (AID 504722); type: functional
[9] = molecular target: T4, Carboxy-terminal domain RNA polymerase II polypeptide A small phosphatase 1 (Homo sapiens, UniProt Q9GZU7); assay: inhibitors of CTDSP1, concentration-response testing, biochemical assay, absorbance-based, actives from ultra-high-throughput screening (AID 540297); type: functional
T4 sequence (Q9GZU7 whole entry): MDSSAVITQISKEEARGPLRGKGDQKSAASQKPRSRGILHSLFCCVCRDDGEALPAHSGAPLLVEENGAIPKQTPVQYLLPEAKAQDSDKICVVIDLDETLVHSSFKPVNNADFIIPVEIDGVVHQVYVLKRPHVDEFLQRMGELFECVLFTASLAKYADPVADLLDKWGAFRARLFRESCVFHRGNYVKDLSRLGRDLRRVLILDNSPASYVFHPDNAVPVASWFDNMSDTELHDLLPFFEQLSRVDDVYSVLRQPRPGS

[10] = molecular target: T5, Zinc finger protein mex-5 (Caenorhabditis elegans, UniProt Q9XUB2); assay: MEX-5/TCR-2 RNA interaction inhibitors, dose response, biochemical, C. elegans, fluorescence polarization (AID 1960)
T5 sequence (Q9XUB2 whole entry): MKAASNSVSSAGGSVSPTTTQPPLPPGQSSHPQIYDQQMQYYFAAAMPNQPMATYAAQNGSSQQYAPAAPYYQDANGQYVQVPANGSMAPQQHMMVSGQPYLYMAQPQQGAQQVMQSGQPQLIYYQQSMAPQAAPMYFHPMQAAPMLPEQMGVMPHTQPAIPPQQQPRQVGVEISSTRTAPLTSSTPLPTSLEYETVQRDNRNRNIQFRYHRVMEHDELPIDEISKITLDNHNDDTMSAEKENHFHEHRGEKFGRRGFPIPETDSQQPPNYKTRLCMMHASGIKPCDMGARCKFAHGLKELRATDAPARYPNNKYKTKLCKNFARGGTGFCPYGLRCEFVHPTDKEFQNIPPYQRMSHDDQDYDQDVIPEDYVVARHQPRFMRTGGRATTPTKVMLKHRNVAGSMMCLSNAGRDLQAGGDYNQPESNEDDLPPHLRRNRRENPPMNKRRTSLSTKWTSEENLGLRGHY

[11] = molecular target: Nonstructural protein 1 (Influenza A virus, UniProt Q194T2); type: functional, Influenza A virus (A/California/07/2009(H1N1))
Sequence of Nonstructural protein 1 (Q194T2 whole entry): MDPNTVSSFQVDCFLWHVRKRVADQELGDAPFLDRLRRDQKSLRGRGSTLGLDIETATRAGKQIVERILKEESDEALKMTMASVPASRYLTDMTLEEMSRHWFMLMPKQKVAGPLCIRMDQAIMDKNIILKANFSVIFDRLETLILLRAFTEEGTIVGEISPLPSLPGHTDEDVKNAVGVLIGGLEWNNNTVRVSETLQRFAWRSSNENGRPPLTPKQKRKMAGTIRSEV

[12] = molecular target: T6, Leucine aminopeptidase (Plasmodium falciparum 3D7, UniProt Q8IL11); assay: P. falciparum M17LAP inhibitors, primary screen, biochemical, fluorogenic H-Leu-NHMec substrate, 1536-well (AID 1619); type: functional
T6 sequence (Q8IL11 whole entry): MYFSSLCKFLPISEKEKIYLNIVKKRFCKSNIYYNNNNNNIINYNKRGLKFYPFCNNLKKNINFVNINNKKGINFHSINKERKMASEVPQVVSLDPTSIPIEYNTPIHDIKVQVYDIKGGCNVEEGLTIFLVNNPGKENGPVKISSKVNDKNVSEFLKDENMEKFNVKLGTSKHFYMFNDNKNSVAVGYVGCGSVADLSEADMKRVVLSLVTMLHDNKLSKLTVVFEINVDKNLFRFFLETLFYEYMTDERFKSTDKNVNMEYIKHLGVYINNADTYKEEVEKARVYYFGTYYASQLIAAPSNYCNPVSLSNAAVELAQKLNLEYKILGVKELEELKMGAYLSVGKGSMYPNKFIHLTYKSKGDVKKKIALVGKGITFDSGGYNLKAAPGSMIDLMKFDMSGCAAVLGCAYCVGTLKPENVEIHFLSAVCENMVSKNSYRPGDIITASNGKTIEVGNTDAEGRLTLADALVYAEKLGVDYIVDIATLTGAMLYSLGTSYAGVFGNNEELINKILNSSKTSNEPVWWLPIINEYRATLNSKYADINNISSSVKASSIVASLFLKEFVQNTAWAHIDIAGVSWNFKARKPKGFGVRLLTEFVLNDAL

[13] = molecular target: Genome polyprotein (dengue virus type 2, UniProt P29990); assay: Dengue-2 NS5 methyltransferase inhibitors, primary screen, biochemical, confirmation dose response (AID 588689); type: functional
Sequence of Genome polyprotein (P29990 2492-3391 limits assumed): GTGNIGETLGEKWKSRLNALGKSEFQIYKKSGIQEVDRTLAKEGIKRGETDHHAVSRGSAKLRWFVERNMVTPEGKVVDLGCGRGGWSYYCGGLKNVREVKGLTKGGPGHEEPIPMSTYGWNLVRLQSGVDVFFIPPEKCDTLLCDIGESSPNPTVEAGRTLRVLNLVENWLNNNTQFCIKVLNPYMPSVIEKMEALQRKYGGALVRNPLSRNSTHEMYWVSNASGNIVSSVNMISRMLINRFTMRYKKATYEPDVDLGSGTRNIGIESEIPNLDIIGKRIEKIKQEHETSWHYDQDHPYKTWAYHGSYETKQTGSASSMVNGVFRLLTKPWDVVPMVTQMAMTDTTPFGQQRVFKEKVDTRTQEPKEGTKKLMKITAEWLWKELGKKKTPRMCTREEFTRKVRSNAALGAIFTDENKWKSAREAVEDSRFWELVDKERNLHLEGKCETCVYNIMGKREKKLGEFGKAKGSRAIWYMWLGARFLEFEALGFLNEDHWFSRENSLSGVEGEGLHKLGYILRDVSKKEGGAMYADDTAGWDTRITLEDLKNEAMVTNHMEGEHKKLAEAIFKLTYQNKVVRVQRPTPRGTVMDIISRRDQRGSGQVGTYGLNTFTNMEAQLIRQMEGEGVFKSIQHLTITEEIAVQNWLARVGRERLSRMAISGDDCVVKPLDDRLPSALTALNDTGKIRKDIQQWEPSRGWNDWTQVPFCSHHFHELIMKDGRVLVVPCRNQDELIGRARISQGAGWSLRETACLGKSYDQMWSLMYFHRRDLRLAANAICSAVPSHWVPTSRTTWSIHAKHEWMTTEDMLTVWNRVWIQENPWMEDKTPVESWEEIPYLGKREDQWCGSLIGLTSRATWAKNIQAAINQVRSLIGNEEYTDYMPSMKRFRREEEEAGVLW

[14] = molecular target: Induced myeloid leukemia cell differentiation protein Mcl-1 (Homo sapiens, UniProt Q07820); type: functional
Sequence of Induced myeloid leukemia cell differentiation protein Mcl-1 (Q07820 whole entry, the tested form may be a part): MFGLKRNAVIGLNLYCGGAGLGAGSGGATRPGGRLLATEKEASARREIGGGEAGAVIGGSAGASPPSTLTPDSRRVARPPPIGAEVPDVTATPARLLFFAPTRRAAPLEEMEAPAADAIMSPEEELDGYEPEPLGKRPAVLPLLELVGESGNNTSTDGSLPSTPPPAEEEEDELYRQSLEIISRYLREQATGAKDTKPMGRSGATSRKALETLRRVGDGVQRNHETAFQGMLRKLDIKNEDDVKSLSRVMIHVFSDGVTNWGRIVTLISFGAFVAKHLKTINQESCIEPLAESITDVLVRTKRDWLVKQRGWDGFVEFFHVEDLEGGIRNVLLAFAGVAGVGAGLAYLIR

[15] = molecular target: T7, RNA-binding protein pos-1 (Caenorhabditis elegans, UniProt G5EF15); assay: inhibitors of POS-1/mex-3 RNA binding, dose response, biochemical, fluorescence polarization (AID 1964);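 also: purified POS-1 fused to maltose binding protein made in E. coli; potency of compounds blocking POS-1 binding to fluorescent RNA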
T7 sequence (G5EF15 whole entry): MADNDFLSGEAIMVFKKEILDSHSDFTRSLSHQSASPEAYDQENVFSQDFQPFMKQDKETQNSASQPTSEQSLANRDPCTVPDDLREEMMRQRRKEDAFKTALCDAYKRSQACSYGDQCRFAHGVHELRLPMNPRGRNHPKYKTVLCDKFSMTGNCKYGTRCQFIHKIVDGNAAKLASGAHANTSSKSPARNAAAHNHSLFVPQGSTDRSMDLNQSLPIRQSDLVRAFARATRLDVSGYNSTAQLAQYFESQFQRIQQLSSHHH

[16] = molecular target: T8, Aminopeptidase N (Plasmodium falciparum FcB1/Columbia, UniProt O96935); assay: P. falciparum M1AAP inhibitors, biochemical, fluorogenic H-Leu-NHMec substrate, 1536-well (AID 1445); parameters: species or system Plasmodium falciparum 3D7, 3D7
T8 sequence (O96935 whole entry): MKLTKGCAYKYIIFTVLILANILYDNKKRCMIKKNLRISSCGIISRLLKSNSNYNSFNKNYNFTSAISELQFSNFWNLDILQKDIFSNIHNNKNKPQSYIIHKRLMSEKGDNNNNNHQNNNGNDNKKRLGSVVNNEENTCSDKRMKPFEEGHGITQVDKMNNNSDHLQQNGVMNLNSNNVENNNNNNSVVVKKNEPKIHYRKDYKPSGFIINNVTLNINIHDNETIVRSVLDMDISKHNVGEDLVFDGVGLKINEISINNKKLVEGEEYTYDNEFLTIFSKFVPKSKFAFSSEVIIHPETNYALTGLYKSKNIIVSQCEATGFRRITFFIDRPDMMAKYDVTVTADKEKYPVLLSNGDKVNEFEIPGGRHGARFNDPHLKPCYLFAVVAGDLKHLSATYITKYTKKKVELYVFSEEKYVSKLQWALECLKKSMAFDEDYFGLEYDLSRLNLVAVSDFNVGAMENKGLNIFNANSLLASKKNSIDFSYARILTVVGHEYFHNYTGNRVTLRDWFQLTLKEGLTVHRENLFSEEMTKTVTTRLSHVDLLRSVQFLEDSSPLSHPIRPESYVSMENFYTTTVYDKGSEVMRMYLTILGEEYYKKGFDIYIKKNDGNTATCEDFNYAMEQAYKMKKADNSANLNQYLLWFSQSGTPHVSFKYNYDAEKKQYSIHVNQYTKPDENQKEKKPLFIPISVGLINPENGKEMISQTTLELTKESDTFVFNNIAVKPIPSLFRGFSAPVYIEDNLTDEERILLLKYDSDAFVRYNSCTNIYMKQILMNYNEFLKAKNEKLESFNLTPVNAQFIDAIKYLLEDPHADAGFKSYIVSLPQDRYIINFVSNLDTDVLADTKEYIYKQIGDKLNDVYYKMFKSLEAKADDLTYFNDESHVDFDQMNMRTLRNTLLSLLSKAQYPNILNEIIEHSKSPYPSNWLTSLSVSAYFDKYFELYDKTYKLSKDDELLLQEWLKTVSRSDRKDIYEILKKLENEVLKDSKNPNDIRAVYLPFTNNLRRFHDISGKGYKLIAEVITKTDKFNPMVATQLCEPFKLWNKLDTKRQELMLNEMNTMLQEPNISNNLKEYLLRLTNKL

[17] = molecular target: Large T antigen (Simian virus 40, UniProt P03070); type: functional, Betapolyomavirus macacae;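 also: Confirmatory-stage PubChem screen for compounds that inhibit SV40 T antigen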
Sequence of Large T antigen (P03070 whole entry): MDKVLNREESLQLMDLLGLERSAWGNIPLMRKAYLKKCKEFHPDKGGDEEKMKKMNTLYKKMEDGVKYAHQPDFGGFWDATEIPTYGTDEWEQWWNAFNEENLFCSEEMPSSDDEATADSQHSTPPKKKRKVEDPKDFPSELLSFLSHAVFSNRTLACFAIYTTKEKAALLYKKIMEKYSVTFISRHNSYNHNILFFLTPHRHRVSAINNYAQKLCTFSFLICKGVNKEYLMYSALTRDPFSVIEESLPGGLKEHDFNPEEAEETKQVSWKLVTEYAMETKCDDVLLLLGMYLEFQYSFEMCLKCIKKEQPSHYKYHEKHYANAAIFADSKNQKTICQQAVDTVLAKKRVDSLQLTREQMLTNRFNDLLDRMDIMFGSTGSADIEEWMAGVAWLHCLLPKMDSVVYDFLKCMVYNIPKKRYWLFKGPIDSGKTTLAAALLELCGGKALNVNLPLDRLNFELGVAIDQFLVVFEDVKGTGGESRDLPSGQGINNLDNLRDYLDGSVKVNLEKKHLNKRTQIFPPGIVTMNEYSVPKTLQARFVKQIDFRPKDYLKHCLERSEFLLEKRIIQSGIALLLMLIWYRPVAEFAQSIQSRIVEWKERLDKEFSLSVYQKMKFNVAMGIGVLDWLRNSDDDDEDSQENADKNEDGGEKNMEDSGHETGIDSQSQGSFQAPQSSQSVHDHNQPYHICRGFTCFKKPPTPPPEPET

[18] = molecular target: T9, Hexokinase (Trypanosoma brucei, UniProt Q38C41); assay: Confirmation assay for inhibitors of Trypanosoma brucei hexokinase 1-Analogue-first series. [Related pubchem assays (depositor defined):AID1430, AID1632, AID2516, AID2560, AID2579, AID2600, AID449725, AID492951]; type: functional
T9 sequence (Q38C41 whole entry): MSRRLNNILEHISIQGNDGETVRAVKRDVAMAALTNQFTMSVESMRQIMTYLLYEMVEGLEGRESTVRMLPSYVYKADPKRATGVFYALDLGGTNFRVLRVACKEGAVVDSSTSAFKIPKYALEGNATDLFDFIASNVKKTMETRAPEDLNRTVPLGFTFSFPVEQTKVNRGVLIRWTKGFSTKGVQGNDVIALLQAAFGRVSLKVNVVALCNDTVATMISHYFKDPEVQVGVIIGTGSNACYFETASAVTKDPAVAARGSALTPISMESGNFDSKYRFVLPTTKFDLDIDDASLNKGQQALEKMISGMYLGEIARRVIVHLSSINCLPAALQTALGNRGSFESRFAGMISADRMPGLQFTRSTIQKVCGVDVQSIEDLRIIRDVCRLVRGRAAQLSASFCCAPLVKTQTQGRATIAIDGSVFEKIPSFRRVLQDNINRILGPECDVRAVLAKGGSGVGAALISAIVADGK

## O=C1CC(c2ccccc2)Cc2[nH]ncc21 (stereo unspecified)
[1]
  IC50: > 100 µM (inactive)
[2]
  IC50: > 100 µM (inactive)
[3]
  IC50: > 100 µM (not active)

## CCc1nc(CNC(=O)c2cc(OC)c(OC)c(OC)c2)no1
[4]
  IC50: 3.11 µM (active)
[5]
  IC50: 2.24 µM (active)

## Cc1ccc(C)c(NC(=O)Cn2cc(C(=O)C3CC3)c3ccccc32)c1
[4]
  IC50: 6.11 µM (active)
[5]
  IC50: 6.88 µM (active)

## COc1ccc(-c2cc(C(=O)Nc3cc(S(=O)(=O)N4CCOCC4)ccc3N3CCOCC3)c3ccccc3n2)cc1
[6]
  EC50: 1.68 µM (active)

## COc1cccc(C(=O)NCc2nnc(S)n2-c2cccc(C)c2)c1
[7]
  IC50: 12.8 µM (active)
[8]
  IC50: > 100 µM (inactive)

## CC(C)(C)OC(=O)NC1(C(Cl)(Cl)Cl)Oc2ccccc2O1
[1]
  IC50: > 100 µM (inactive)
[2]
  IC50: > 100 µM (inactive)

## Cc1cc(Br)ccc1NC(=O)CN(C)C(=O)Cn1c(=O)cnc2ccccc21
[4]
  IC50: 6.85 µM (active)
[5]
  IC50: 5.76 µM (active)
[9]
  IC50: 7.57 µM (active)

## O=C(O)c1ccccc1NS(=O)(=O)c1ccc(NNC(=S)Nc2ccc(OC(F)F)cc2)c([N+](=O)[O-])c1
[10]
  EC50: 5.57 µM (active)
[11]
  IC50: 13 µM (active)
[12]
  IC50: 5.33 µM (active)
[13]
  IC50: 18.5 µM (active)
[14]
  IC50: 2.95 µM (active)
[15]
  EC50: 7.38 µM (active)
[16]
  IC50: 17.3 µM (active)
[17]
  IC50: 29.8 µM (active)

## Sc1nc(-c2ccccc2)cn1/N=C/c1cccnc1
[7]
  IC50: 4.77 µM (active)
[8]
  IC50: > 100 µM (inactive)

## COc1ccc(C(=O)Nc2cc(Cl)ccc2C(=O)O)cc1OC
[18]
  IC50: 15.5 µM (active)

## COc1ccc(C(=O)Nc2ccccc2-c2nn[nH]n2)cc1
[18]
  IC50: > 25 µM (inactive)

## Cc1ccc(-c2nc3ccccc3[nH]2)cc1NC(=S)NC(=O)c1ccccc1Br
[6]
  EC50: 2.9 µM (active)

## COC(=O)c1cc(-c2ccc(Cl)cc2Cl)n[nH]1
[1]
  IC50: 264 nM (active) and 315 nM (active)
[2]
  IC50: > 100 µM (inactive)
[3]
  IC50: > 100 µM (not active)
